This note sets out measurements from patent US20110166428A1, “NOVEL METHOD FOR MEASURING INSULIN RESISTANCE” (UNIVERSITE JOSEPH FOURIER, priority 2008, published 2011).

SMILES strings stand for the structures. Where “and” joins values, the source holds several entries; their conditions need not be identical. Equal values may be shown once.

Series [1] in a line: Scintigraphy of 123I-6DIG in the dog: thoracic and blood activity, fasting or under GIK. In kind it is in vivo. Conditions: for slope of cardiac activity measured between 2 and 5 minutes: dog heart, FIG. 8. Here is the method: This graph represents on the y-axis the variations in […], for one pixel and in the quantity (in mCi) of 6DIG injected, in relation to the x-axis which represents the data acquisition time in minutes, in the heart of a dog. The measured activity is related to the number of pixels, since when a region of interest is determined on a scintigraphy image, the number of pixels in the manually selected zone is not always the same.
Two series of data are shown; a first series of measurements indicated by linked squares represents the data recorded for a fasting animal. A second series of data, indicated by linked circles, represents the data recorded for an animal perfused with a GIK solution (Glucose/Insulin/potassium).
Animals: male beagle dogs aged about 1 year, weighing between 15 and 20 kg and fed with a standard diet Jape 21 (Ets L. Pietrement).
The dogs, premedicated with an intramuscular injection of ketamine (10 mg/kg), are anaesthetised by means of an intravenous injection of sodium thiopental (25 mg/kg). The animals are intubated and ventilated throughout the experiment and kept asleep with halothane in the ventilation circuit (oxygen-enriched air).
6DIG (20 μmol) labelled with iodine 123 (about 4 mCi) is injected intravenously. The scintigraphy images are acquired by means of a standard gamma camera equipped with a high resolution collimator and the […] is set at 160 keV with a 20% window. The variation in the thoracic radioactivity (heart, lungs and liver) with time is measured for 30 minutes post-injection, at the rate of one image per minute. The change in the blood activity is obtained by taking blood samples (1, 2, 3, 4, 5, 10. 15, 20 and 30 min p.i.) and the measurement of the radioactivity by means of a gamma counter (Packard).
Two protocols were followed, the first was implemented in fasting animals (withdrawal of food the night before the experiment, n=1) and the second was implemented in animals perfused with a GIK (Glucose/Insulin/Potassium) solution containing in particular insulin (30% glucose, 4 g/l of KCl and 80 IU/kg of insulin, n=2) and maintained throughout the experiment.

Series [2] deals with Zucker rats (insulin resistant). Nature of the series: Sensitivity of the empirical index of glucose transport into the heart, Rosiglitazone vs placebo. Conditions: three weeks after treatment. In kind it is in vivo, rat. The text has this: (§1) This graph represents the mean obtained during the calculations of empirical descriptor in the heart, in the Zucker rat, with or without treatment with Rosiglitazone or with a placebo. The values of the descriptor are shown on the y-axis. The x-axis comprises 4 columns: the two on the left and the two on the right; the two on the left relate to the values observed for the rats at the start of observation before any injection, and the two on the right relate to the rats 21 days after injection. The white columns indicate rats having undergone an injection of Rosiglitazone, the black columns indicate rats having undergone an injection of a placebo.
The rat receives a first bolus of 6-DIG labelled with iodine 123 (about 250 μCi, this activity being counted in a Capintec CRC15R ionisation chamber supplied by Aries, France) in the basal condition. The activity of the 6-DIG is monitored with the gamma camera (field of view 10 cm, intrinsic resolution 1.8 mm, Biospace, France) in cardiac cells for 20 minutes. During these 20 minutes, the radioactivity is counted in “LIST” mode and analysed a posteriori.
The rat then receives an injection of insulin (2.5 IU/kg), performed 5 minutes before a second injection of the tracer (about 250 μCi). The activity of the 6-DIG is again monitored with the gamma camera in cardiac cells for 20 minutes. […]

Series [3] shares this test system. The series is described as follows: Sensitivity of the empirical index of glucose transport into the skeletal muscle, Rosiglitazone vs placebo. It counts as in vivo, rat. Conditions: three weeks after treatment. From the text:
This graph represents the mean obtained during calculations of the empirical descriptor in the skeletal muscle, in the Zucker rat, with or without treatment with Rosiglitazone or with a placebo. The values of the descriptor are shown on the y-axis. The x-axis comprises 4 columns: the two on the left and the two on the right; the two on the left relate to the values observed for the rats at the start of observation before any injection, and the two on the right relate to the rats 21 days after injection. The white columns indicate rats having undergone an injection of Rosiglitazone, the black columns indicate rats having undergone an injection of a placebo.
The rat receives a first bolus of 6-DIG labelled with iodine 123 (about 250 μCi, this activity being counted in a Capintec CRC15R ionisation chamber supplied by Aries, France) in the basal condition. The activity of the 6-DIG is monitored with the gamma camera (field of view 10 cm, intrinsic resolution 1.8 mm, Biospace, France), or with the NaI probe (Scintibloc from Crismatec (Nemours, France) and ScintiSPEC, Aries) in skeletal muscle cells (quadriceps of hind paw) for 20 minutes. During these 20 minutes, the radioactivity is counted in “LIST” mode (TD. Cradduck, Computers in Nuclear Medicine, Vol. 5; No. 1, 1985, Radiographics) and analysed a posteriori […]

Series [4] shares this test system. The series is described as follows: Sensitivity of the theoretical index k(2,1) insulin/basal of glucose transport into the heart, Rosiglitazone vs placebo. As to conditions: seven days after treatment, p<0.05, FIG. 18. It counts as in vivo, rat.
Text: as §1, with “during” for “during the”, “the theoretical index” for “empirical descriptor”, “index” for “descriptor”, “7” for “21”
The model utilised is a three-compartment mammillary model, derived from that used to measure the kinetic parameters of transport of 3OMG, the reference tracer for glucose transport (Cobelli, 1989; Am. J. Physiol., 257, E444-E450). It makes it possible to study the biological behaviour of the tracer after injection in the rat in vivo (Slimani L. et al., CR Biol, 2002, 325(4), 529-546). The central compartment (s1) represents the plasma. […] The radioactivity measured at the level of compartments 1 and 2 is designated respectively as q1 and q2. […]
The index characterizing the rate of glucose transport into the heart was measured twice, 7 days apart, on the same animal, treated with Rosiglitazone or a placebo. […]

For the compound `O=C[C@H](O)[C@@H](O)[C@H](O)[C@H](O)CI` [6DIG, 6-Deoxy-6-Iodo-D-Glucose], the “slope of cardiac activity measured between 2 and 5 minutes” value is 0.013 in series [1] (fasting); 0.044 and 0.022 in series [1] (under GIK perfusion). Moreover, in series [1] (dog, i.v., blood samples, gamma counter), the blood activity entry is “decreases very rapidly”. For the same compound, in series [1] (dog, i.v., gamma camera), the pulmonary activity entry is “low and comparable to the background noise”. Moreover, the “activity in the liver” value in series [1] (dog, i.v., gamma camera, 30 minutes post-injection) is on record as “greatest in the liver at 5 minutes but decreases rapidly”.
As to `CN(CCOc1ccc(CC2SC(=O)NC2=O)cc1)c1ccccn1` (racemic) [Rosiglitazone, (±)-5-[[4-[2-(methyl-2-pyridinylamino)ethoxy]phenyl]methyl]-2,4-thiazolidinedione], the “empirical descriptor (empirical index of rate of glucose transport into the heart) vs rats treated with placebo” value in series [2] (p=0.006, FIG. 12) is “significantly greater”. Further, the “empirical descriptor (empirical index of rate of glucose transport into the heart) vs same rats before treatment” value in series [2] (p=0.033, FIG. 12) is “significantly greater”. Further, in series [3] (p=0.005, FIG. 16), the “empirical descriptor (empirical index of rate of glucose transport into the skeletal muscle) vs rats treated with placebo” value is reported as “significantly greater”. Also, the “empirical descriptor (empirical index of rate of glucose transport into the skeletal muscle) vs same rats before treatment” value in series [3] (p=0.021, FIG. 16) is listed as “significantly greater”. Also, the “index characterizing the rate of glucose transport into the heart (theoretical index) vs rats treated with placebo” value in series [4] was “significantly greater”.
